Measurements reported in article PMC7447632, “Highly functionalized β-lactams and 2-ketopiperazines as TRPM8 antagonists with antiallodynic activity” (Scientific Reports, 2020).
Where a name gives a salt, the structure may show the parent alone. Read-outs that look alike come from different tables or passages of the source.

How the values were obtained:
[1] = system: TRPM8; conditions: cited from earlier work; for IC50: Figure 1, literature values; for EC50: Figure 1, literature value
[2] = target: T1, rat TRPM8 channel (Rattus norvegicus, UniProt Q8R455); experiment: Ca2+ microfluorometry, menthol-induced Ca2+ influx in HEK293 cells expressing rat TRPM8; format: cell-based; conditions: 100 µM menthol, HEK-rTRPM8; for % Blockade 5 µM: 5 µM compound; for % Blockade 50 µM: 50 µM compound; for IC50: Ca2+ microfluorometry
T1 construct: expressed in transfected cells; host or cells: HEK293 (stably transfected)
Experimental: The ability to inhibit menthol-induced Ca^2+ intracellular influx into the cytosol on HEK293 cells heterologously expressing the rat TRPM8 channel was measured and compared to that of AMTB, a well-known TRPM8 antagonist. Representative recordings of fluorescence obtained in microfluorometry experiments for selected compounds are in Supplementary Fig. S3.
(§1) Human embryonic kidney cell line (HEK) stably transfected with rTRPM8 or h-TRPV1 were used as previously described. Briefly, cells were seeded in 96-well plates at a cell density of 30,000 cells 2 days before treatment. Buffer used was HBBS (in mM): 138 NaCl, 5.33 KCl, 1.26 CaCl2, 0.5 MgCl-6H2O, 0.4 MgSO4-7H2O, 4 NaHCO3 0.44 KH2PO4, 0.3 Na2HPO4, pH 7.4. The day of treatment the medium was replaced with 100 µL of the dye loading solution Fluo-4 NW supplemented with probenecid 2.5 mM. After incubation, plates were transferred to a fluorescence plate reader (Polastar BMG). In the experimental protocol, the baseline fluorescence was recorded ([…]) for 3 cycles. After, vehicle, compound at different concentrations and the corresponding antagonist, 10 µM AMTB for TRPM8 or 10 µM Ruthenium Red for TRPV1 were added to the well. Fluorescence intensity was recorded during 7 cycles more. Finally, the agonist 100 µM menthol for TRPM8 or 1 µM capsaicin for TRPV1 was added and fluorescence intensity was recorded during 10 cycles more.
The degree of inhibition of TRPM8 channel gating was calculated by comparison to calcium increase signal elicited by test substances and menthol at 100 µM. Decrease of menthol signal was expressed as percentage of inhibition (%). All data are expressed as mean ± standard deviation (SD). Each condition was assessed by triplicate (n = 3) in 3 independent experiments (N = 3). Z-factor was calculated in each assay using the following equation: […]. In all the experiments Z-factor was ≥ 0.5. To calculate IC50, normalized responses (%) versus log [µM] were adjusted to a non-linear fit with variable slope, a four-parameter dose–response curve following curve Y = 100/(1 + 10^((Log IC50-X)*HillSlope)) where […].

[3] = target: T2, hTRPV1 channels (Homo sapiens, UniProt Q8NER1); experiment: Ca2+ microfluorometry in HEK cells expressing hTRPV1 (capsaicin); format: cell-based; conditions: 1 µM capsaicin; for TRPV1 Blockade (%) 5 µM: 5 µM compound; for TRPV1 Blockade (%) 50 µM: 50 µM compound
T2 construct: expressed in transfected cells; host or cells: HEK (stably transfected)
Experimental: β-Lactam and 2-ketopiperazine derivatives were also assayed for their activity in cell expressing hTRPV1 channels. No significant antagonist activity was measured for any derivatives within both chemotypes (Supplementary Tables S1, S2, and Fig. S3), indicating their selectivity for TRPM8 channels.
as §1
Table S1. Activity at hTRPV1 of β–lactams derived from phenylalaninol conjugates
Compd. Isomer Isomer TRPV1 Blockade (%)
Table S2. Activity at hTRPV1 of 2-ketopiperazines derived from phenylalaninol

[4] = system: A549 (lung carcinoma, NSCLC); experiment: SRB cytotoxicity assay, A549; format: cell-based; conditions: for TGI A549: total growth inhibition; for GI50 / CC50: Homo sapiens; for CC50: read-out: LC50 A549
Experimental: (§2) Human tumor cell lines used in this study were purchased from the ATCC. A-549 (CCL-185), lung carcinoma; HT-29 (HTB-38), colorectal adenocarcinoma; MDA-MB-231 (HTB-26), breast adenocarcinoma; PSN1, pancreas adenocarcinoma.
(§3) All cell lines were maintained in DMEM (Dulbecco’s Modified Eagle's Medium) culture medium supplemented with 10% FBS (Fetal Bovine Serum), 100 Units/mL penicillin/streptomycin at 37 °C, 5% CO2 and 95% humidity.
(§4) Triplicate cultures were incubated for 72 h in the presence or absence of test compounds in dose–response curves (10 concentrations, typically ranging from 10 to 0.0026 µg/mL). A colorimetric assay using sulforhodamine B (SRB) was adapted for quantitative measurement of cell growth and cytotoxicity. A more detailed information on this assay is provides in the supplementary information. GI50 is the compound concentration that produces 50% inhibition on cell growth as compared to control cells.
(§5) In vitro bioassays for the detection of antitumor activity
(§6) The aim of this assay is to evaluate the in vitro cytostatic (ability to delay or arrest tumor cell growth) or cytotoxic (ability to kill tumor cells) activity of the samples […]
(§7) Name Nº ATCC Species Tissue Characteristics
(§8) A549 CCL-185 human lung lung carcinoma (NSCLC)
(§9) HT29 HTB-38 human colon colorectal adenocarcinoma
(§10) MDA-MB-231 HTB-26 human breast breast adenocarcinoma
(§11) PSN1 CRM-CRL-3211 human pancreas pancreas adenocarcinoma […]
(§12) A colorimetric assay, using Sulforhodamine B (SRB) reaction has been adapted to provide a quantitative measurement of cell growth and viability (following the technique described by Skehan et al. J. Natl. Cancer Inst. 1990, 82, 1107-1112 […]
(§13) This form of assay employs 96-well cell culture microplates following the standards of the American National Standards Institute and the Society for Laboratory […]
(§14) used in this study were obtained from the American Type Culture Collection (ATCC) and derive from different types of human cancer.
(§15) A549, HT29, MDA-MB-231 and PSN1 cells were maintained in Dulbecco’s
(§16) Modified Eagle Medium (DMEM) supplemented with 10% Fetal Bovine Serum (FBS), 2mM L-glutamine, 100 U/mL penicillin, and 100 U/mL streptomycin at 37 °C, 5% CO2 and 98% humidity. For the experiments, cells were harvested from subconfluent cultures using trypsinization and resuspended in fresh medium before counting and […]
(§17) A549, HT29, MDA-MB-231 and PSN1 cells were seeded in 96 well microtiter plates, at 5000 cells per well in aliquots of 150 µL, and allowed to attach to the plate surface for 18 hours (overnight) in drug free medium. After that, one control (untreated) plate of each cell line was fixed (as described below) and used for time zero reference value. Culture plates were then treated with test compounds (50 µL aliquots of 4X stock […]
(§18) solutions in complete culture medium plus 4% DMSO) using ten 2/5 serial dilutions (concentrations ranging from 10 to 0.003 µg/mL) and triplicate cultures (1% final concentration in DMSO). After 72 hours treatment, the antitumor effect was measured by using the SRB methodology: Briefly, cells were washed twice with PBS, fixed for 15 min in 1% glutaraldehyde solution at room temperature, rinsed twice in PBS, and stained in 0.4% SRB solution for 30 min at room temperature. Cells were then rinsed several times with 1% acetic acid solution and air-dried at room temperature. SRB was then extracted in 10 mM trizma base solution and the absorbance measured in an automated spectrophotometric plate reader at 490 nm.
(§19) Effects on cell growth and survival were estimated by applying the NCI algorithm (Boyd MR and Paull KD. Drug Dev. Res. 1995, 34, 91-109, DOI:10.1002/ddr.430340203). The values obtained in triplicate cultures were fitted by nonlinear regression to a four-parameters logistic curve by nonlinear regression analysis. . Using the absorbance measurements [time zero, (Tz), control growth, (C), and test growth in the presence of drug at the ten concentration levels (Ti)], the […]

[5] = system: HT29 (colorectal adenocarcinoma); experiment: SRB cytotoxicity assay, HT29; format: cell-based; conditions: for TGI HT29: total growth inhibition; for GI50 / CC50: Homo sapiens; for CC50: read-out: LC50 HT29
Experimental: as §2, §3, §4, §5, §6, §7, §8, §9, §10, §11, §12, §13, §14, §15, §16, §17, §18, §19

[6] = system: MDA-MB-231 (breast adenocarcinoma); experiment: SRB cytotoxicity assay, MDA-MB-231; format: cell-based; conditions: for TGI MDA-MB-231: total growth inhibition; for GI50 / CC50: Homo sapiens; for CC50: read-out: LC50 MDA-MB-231
Experimental: as §2, §3, §4, §5, §6, §7, §8, §9, §10, §11, §12, §13, §14, §15, §16, §17, §18, §19

[7] = system: PSN1 (pancreas adenocarcinoma); experiment: SRB cytotoxicity assay, PSN1; format: cell-based; conditions: for TGI PSN1: total growth inhibition; for GI50 / CC50: Homo sapiens; for CC50: read-out: LC50 PSN1
Experimental: as §2, §3, §4, §5, §6, §7, §8, §9, §10, §11, §12, §13, §14, §15, §16, §17, §18, §19

[8] = HT-29, 72 h, SRB, unit inferred
[9] = MDA-MB-231, 72 h, SRB, unit inferred

T1 sequence (Q8R455 whole entry): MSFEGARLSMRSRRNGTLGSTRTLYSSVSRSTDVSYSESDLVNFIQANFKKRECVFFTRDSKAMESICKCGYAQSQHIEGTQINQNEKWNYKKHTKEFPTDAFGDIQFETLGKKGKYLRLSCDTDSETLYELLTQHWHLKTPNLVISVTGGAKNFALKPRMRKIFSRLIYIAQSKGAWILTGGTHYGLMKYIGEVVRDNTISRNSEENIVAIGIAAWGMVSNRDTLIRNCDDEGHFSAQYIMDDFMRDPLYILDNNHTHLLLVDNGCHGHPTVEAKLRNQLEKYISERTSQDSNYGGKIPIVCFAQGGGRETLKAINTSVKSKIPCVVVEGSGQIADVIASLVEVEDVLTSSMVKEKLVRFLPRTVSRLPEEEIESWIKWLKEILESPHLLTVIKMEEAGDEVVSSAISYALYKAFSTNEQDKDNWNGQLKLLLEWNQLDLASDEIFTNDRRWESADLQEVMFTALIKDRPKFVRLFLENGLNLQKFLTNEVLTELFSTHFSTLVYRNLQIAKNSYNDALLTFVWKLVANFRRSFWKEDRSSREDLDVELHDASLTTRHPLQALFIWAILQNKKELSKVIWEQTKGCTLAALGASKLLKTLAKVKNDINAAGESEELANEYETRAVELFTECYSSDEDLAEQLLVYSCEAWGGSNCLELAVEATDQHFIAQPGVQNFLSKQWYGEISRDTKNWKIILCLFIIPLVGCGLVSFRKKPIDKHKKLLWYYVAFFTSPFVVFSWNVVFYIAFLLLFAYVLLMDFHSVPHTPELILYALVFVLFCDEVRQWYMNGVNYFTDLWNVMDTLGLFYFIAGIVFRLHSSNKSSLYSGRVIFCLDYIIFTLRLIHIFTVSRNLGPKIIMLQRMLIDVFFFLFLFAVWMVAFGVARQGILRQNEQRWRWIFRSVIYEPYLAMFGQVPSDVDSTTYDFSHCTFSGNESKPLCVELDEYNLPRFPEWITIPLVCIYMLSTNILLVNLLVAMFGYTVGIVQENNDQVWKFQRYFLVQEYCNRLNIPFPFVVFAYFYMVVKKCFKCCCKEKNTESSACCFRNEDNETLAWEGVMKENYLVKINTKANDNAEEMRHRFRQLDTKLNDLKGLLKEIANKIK
T2 sequence (Q8NER1 whole entry): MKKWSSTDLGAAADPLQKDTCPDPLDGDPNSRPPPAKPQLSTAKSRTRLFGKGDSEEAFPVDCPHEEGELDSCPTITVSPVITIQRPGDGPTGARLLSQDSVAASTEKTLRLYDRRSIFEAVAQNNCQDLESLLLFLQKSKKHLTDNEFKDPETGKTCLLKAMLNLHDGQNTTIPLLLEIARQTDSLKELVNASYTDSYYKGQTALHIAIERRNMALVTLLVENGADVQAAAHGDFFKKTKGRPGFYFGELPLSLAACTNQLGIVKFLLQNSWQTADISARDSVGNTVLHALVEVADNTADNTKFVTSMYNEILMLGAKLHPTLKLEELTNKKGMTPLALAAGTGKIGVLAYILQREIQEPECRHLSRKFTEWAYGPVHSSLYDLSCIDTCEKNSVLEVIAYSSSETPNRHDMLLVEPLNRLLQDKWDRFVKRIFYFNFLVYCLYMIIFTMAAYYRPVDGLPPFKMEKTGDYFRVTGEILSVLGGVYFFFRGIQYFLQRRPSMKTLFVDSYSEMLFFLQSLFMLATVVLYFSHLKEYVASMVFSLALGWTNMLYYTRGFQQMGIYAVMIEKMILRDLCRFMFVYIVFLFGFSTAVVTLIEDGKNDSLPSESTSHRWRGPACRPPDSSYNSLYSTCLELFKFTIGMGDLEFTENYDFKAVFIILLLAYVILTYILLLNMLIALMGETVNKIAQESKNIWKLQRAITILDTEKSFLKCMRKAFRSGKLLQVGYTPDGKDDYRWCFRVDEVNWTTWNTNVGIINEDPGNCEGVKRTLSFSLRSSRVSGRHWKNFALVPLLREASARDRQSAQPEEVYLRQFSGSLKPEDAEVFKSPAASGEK

Row | SMILES | IC50 [1] [µM] | TGI A549 ([4]; 72 h, SRB, unit inferred) [µM] | GI50 ([4]; A549, 72 h, SRB) [µM] | TGI HT29 ([5]; 72 h, SRB, unit inferred) [µM] | GI50 ([5]; HT-29, 72 h, SRB) [µM] | TGI MDA-MB-231 ([6]; 72 h, SRB, unit inferred) [µM] | GI50 ([6]; MDA-MB-231, 72 h, SRB) [µM] | TGI PSN1 ([7]; 72 h, SRB, unit inferred) [µM] | GI50 ([7]; PSN1, 72 h, SRB) [µM] | also measured
1 | Cc1cccc(COc2ccccc2C(=O)N(CCCN)Cc2cccs2)c1 [AMTB] | 0.16 | – | – | – | – | – | – | – | – | –
2 | COC(=O)[C@H](Cc1c[nH]c2ccccc12)N(Cc1ccccc1)Cc1ccccc1 [Bn2-Trp-OMe] | 0.0002 | – | – | – | – | – | – | – | – | –
3 | O=C(OCc1ccccc1)C(Cc1ccccc1)N1C[C@H](Cc2ccccc2)N(C(=O)OCc2ccccc2)CC1=O (stereo partly drawn) [Compound 13ab] | – | > 17.8 | > 17.8 | > 17.8 | > 17.8 | > 17.8 | > 17.8 | > 17.8 | > 17.8 | % Blockade 5 µM [2]: 48.9 ± 6.2%; % Blockade 50 µM [2]: 102.1 ± 7.7%; TRPV1 Blockade (%) 5 µM [3]: 7.2±3.8%; TRPV1 Blockade (%) 50 µM [3]: 8.1±3.4%; CC50 ([4]; A549, 72 h, SRB, unit inferred): > 17.8 µM; CC50 [5, 8]: > 17.8 µM; CC50 [6, 9]: > 17.8 µM; CC50 ([7]; PSN1, 72 h, SRB, unit inferred): > 17.8 µM
4 | O=C(OCc1ccccc1)C(Cc1ccccc1)N1C[C@@H](Cc2ccccc2)N(C(=O)OCc2ccccc2)CC1=O (stereo partly drawn) [Compound 15ab] | – | > 17.8 | > 17.8 | > 17.8 | > 17.8 | > 17.8 | > 17.8 | > 17.8 | 6.4 | % Blockade 5 µM [2]: 101.4 ± 6.1%; % Blockade 50 µM [2]: 106 ± 5.06%; IC50 [2]: 1.8 ± 1.9 µM; TRPV1 Blockade (%) 5 µM [3]: 6.3±2.1%; TRPV1 Blockade (%) 50 µM [3]: 7.8±4.1%; CC50 ([4]; A549, 72 h, SRB, unit inferred): > 17.8 µM; CC50 [5, 8]: > 17.8 µM; CC50 [6, 9]: > 17.8 µM; CC50 ([7]; PSN1, 72 h, SRB, unit inferred): > 17.8 µM
5 | C[C@@H]1C(=O)N(C(Cc2ccccc2)C(=O)OCc2ccccc2)C[C@@H](Cc2ccccc2)N1C(=O)OCc1ccccc1 (stereo partly drawn) [Compound 30ab] | – | > 17.3 | 12.7 | > 17.3 | > 17.3 | > 17.3 | > 17.3 | > 17.3 | 8.3 | % Blockade 5 µM [2]: 101.7 ± 5.3%; % Blockade 50 µM [2]: 101.2 ± 11.4%; IC50 [2]: 0.16 µM; TRPV1 Blockade (%) 5 µM [3]: 9.2±2.1%; TRPV1 Blockade (%) 50 µM [3]: 13.9±4.8%; CC50 ([4]; A549, 72 h, SRB, unit inferred): > 17.3 µM; CC50 [5, 8]: > 17.3 µM; CC50 [6, 9]: > 17.3 µM; CC50 ([7]; PSN1, 72 h, SRB, unit inferred): > 17.3 µM
6 | COc1cccc2c1C(=O)c1c(O)c3c(c(O)c1C2=O)C[C@@](O)(C(=O)CO)C[C@@H]3O[C@H]1C[C@H](N)[C@H](O)[C@H](C)O1 [Doxorubicin.HCl, reference compound] | – | 0.64 | 0.24 | 0.64 | 0.19 | 0.41 | 0.17 | 0.48 | 0.17 | CC50 ([4]; A549, 72 h): 2.93 µM; CC50 ([5]; HT-29, 72 h): > 17.2 µM; CC50 ([6]; MDA-MB-231, 72 h): 0.98 µM; CC50 ([7]; PSN1, 72 h): 1.62 µM
7 | O=C1NC(c2cccc([N+](=O)[O-])c2)=CCN1c1ccccc1O [Icilin] | – | – | – | – | – | – | – | – | – | EC50 [1]: 0.005 µM
8 | C[C@H](c1cc(F)cc(F)c1)N(C(=O)c1ccccc1)[C@@H](C(N)=O)c1ccccc1 [KPR-2579] | 0.008 | – | – | – | – | – | – | – | – | –
9 | CC1CCC(C(C)C)C(O)C1 (stereo not drawn) [Menthol] | – | – | – | – | – | – | – | – | – | EC50 [1]: 200 to 500 µM
10 | C[C@H](c1ccc(F)cc1)N(Cc1cccc(C(=O)O)c1)C(=O)c1cnc2ccccc2c1 [PF-05105679] | 0.181 | – | – | – | – | – | – | – | – | –
11 | O=C(O)c1ccc(S(=O)(=O)N(Cc2ccc(OC(F)(F)F)cc2)c2ncc(C(F)(F)F)cc2Cl)cc1 [RQ 00203078] | 0.0083 | – | – | – | – | – | – | – | – | –
